Data reported in US8569267B2, “Tetracyclic tetrahydrofuran derivatives containing cyclic amine side chain” (Janssen Pharmaceutica, NV, priority 2005, dated 2013).
pIC50: −log10 of the molar value. Read-outs that look alike come from different tables or passages of the source.

Key:
[1] = target: T1, human Dopamine D2L receptor (Homo sapiens, UniProt P14416); experiment: In vitro binding affinity for human D2L receptor ([3H]Spiperone binding); conditions: for IC50 / D2L pIC50: human D2L receptor-transfected CHO cell membranes; for IC50: read-out: D2L pIC50 (converted)
T1 construct: expressed in transfected cells; host or cells: CHO cells
Protocol: In Vitro Binding Affinity for Human D2L Receptor
Frozen membranes of human Dopamine D2L receptor-transfected CHO cells were thawed, briefly homogenised using an Ultra-Turrax T25 homogeniser and diluted in Tris-HCl assay buffer containing NaCl, CaCl2, MgCl2, KCl (50, 120, 2, 1, and 5 mM respectively, adjusted to pH 7.7 with HCl) to an appropriate protein concentration optimised for specific and non-specific binding. Radioligand [^3H]Spiperone (NEN, specific activity ˜70 Ci/mmol) was diluted in assay buffer at a concentration of 2 nmol/L. Prepared radioligand (50 μl), along with 50 μl of either the 10% DMSO control, Butaclamol (10^−6 mol/l final concentration), or compound of interest, was then incubated (30 min, 37° C.) with 400 μl of the prepared membrane solution. Membrane-bound activity was filtered through a Packard Filtermate harvester onto GF/B Unifilterplates and washed with ice-cold Tris-HCl buffer (50 mM; pH 7.7; 6×0.5 ml). Filters were allowed to dry before adding scintillation fluid and counting in a Topcount scintillation counter. Percentage specific bound and competition binding curves were calculated using S-Plus software (Insightful).

[2] = target: T2, NET (norepinephrine transporter) (Rattus norvegicus, UniProt Q63380); experiment: In vitro determination of NET reuptake inhibition ([3H]Nixosetine binding, rat brain cortex); conditions: for IC50 / NET pIC50: rat brain cortex; for IC50: read-out: NET pIC50 (converted)
T2 construct: Cortex from rat brain was collected and homogenised; from tissue; host or cells: rat brain cortex
Protocol: In Vitro Determination of NET Reuptake Inhibition
Cortex from rat brain was collected and homogenised using an Ultra-Turrax T25 and a Dual homogeniser in ice-cold homogenising buffer containing Tris, NaCl and KCl (50 mM, 120 mM and 5 mM, respectively, pH 7.4) prior to dilution to an appropriate protein concentration optimised for specific and non-specific binding. […] Membrane-bound activity was detected by filtration through a Packard Filtermate harvester onto GF/B Unifilterplates, washed with ice-cold Tris-HCl buffer, containing NaCl and KCl (50 mM, 120 mM and 4 mM; pH 7.4; 6×0.5 ml). Filters were allowed to dry for 24 h before adding scintillation fluid. Scintillation fluid was allowed to saturate filters for 24 h before counting in a Topcount scintillation counter. Percentage specific bound and competition binding curves were calculated using S-Plus software (Insightful).

[3] = target: T3, human cloned 5-HT2C receptor, expressed in CHO cells (Homo sapiens, UniProt P28335); experiment: In vitro binding affinity for 5-HT2C receptor ([3H]mesulergine radioligand binding); conditions: for IC50 / 5-HT2C pIC50: human cloned 5-HT2C receptor; for IC50: read-out: 5-HT2C pIC50 (converted)
T3 construct: expressed in transfected cells; host or cells: CHO cells
T3 sequence (P28335 33-458): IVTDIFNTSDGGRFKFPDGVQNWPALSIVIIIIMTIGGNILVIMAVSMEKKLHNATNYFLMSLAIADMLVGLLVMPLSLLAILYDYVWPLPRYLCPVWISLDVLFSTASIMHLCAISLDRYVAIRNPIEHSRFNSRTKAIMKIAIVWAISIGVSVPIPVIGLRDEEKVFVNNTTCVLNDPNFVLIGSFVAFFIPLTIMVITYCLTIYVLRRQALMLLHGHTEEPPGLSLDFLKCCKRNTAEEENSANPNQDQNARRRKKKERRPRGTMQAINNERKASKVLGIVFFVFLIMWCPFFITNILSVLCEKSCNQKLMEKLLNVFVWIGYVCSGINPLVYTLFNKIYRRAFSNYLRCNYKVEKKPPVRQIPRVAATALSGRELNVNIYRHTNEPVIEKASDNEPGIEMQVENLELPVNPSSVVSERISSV
Protocol: In Vitro Binding Affinity for 5-HT2A and 5-HT2C Receptors
The interaction of the compounds of Formula (I) with 5-HT2A and 5-HT2C receptors was assessed in in vitro radioligand binding experiments. […] During the incubation, the radioligands bind to the receptor. When equilibrium of binding is reached, the receptor bound radioactivity is separated from the non-bound radioactivity, and the receptor bound activity is counted. The interaction of the test compounds with the receptors is assessed in competition binding experiments. Various concentrations of the test compound are added to the incubation mixture containing the tissue preparation and the radioligand. Binding of the radioligand will be inhibited by the test compound in proportion to its binding affinity and its concentration.

T1 sequence (P14416 whole entry): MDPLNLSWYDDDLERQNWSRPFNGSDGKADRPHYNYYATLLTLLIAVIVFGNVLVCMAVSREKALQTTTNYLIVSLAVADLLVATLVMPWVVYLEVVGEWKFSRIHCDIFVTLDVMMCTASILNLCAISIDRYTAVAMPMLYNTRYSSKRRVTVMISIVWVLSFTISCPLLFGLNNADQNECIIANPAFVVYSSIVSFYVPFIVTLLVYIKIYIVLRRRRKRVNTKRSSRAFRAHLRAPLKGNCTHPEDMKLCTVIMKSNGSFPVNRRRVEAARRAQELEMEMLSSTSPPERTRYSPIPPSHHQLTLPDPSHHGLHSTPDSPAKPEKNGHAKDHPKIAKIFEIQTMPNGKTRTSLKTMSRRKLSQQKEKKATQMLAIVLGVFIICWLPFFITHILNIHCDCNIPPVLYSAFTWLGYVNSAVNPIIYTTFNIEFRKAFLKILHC
T2 sequence (Q63380 1-617): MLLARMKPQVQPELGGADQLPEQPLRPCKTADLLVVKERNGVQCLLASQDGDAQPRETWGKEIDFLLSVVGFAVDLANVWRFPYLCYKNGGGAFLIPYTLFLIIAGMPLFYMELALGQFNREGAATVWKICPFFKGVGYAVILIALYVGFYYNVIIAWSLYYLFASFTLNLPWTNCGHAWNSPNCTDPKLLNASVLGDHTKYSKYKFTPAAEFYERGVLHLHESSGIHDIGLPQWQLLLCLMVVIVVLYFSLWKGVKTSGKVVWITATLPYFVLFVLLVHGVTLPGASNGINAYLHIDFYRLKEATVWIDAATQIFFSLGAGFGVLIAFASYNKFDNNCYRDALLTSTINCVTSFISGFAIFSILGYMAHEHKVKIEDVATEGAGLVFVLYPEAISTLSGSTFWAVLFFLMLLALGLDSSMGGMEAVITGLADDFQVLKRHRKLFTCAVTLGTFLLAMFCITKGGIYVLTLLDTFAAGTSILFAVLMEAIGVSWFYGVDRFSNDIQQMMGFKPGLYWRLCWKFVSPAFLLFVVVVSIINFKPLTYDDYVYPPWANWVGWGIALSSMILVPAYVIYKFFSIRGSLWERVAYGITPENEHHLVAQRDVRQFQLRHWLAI

SMILES | IC50 [1] | IC50 [2] | IC50 [3] | also measured
CCCCOC(=O)NC1CCN(CC2CC3c4ccccc4Cc4ccc(F)cc4C3O2)CC1 (stereo not drawn) [Compound 213] | 8.71 nM | 4370 nM | 15.5 nM | –
O=C(NC1CCN(CC2CC3c4ccccc4Cc4ccc(F)cc4C3O2)CC1)c1ccc(Cl)c(Cl)c1 (stereo not drawn) [Compound 229] | 14.8 nM | > 10000 nM | 24 nM | –
O=C(NC1CCN(CC2CC3c4ccccc4Cc4ccc(F)cc4C3O2)CC1)c1ccccc1Br (stereo not drawn) [Compound 226] | 5.37 nM | 10500 nM | 6.61 nM | –
CCOC(=O)NC1CCN(CC2CC3c4ccccc4Cc4ccc(F)cc4C3O2)CC1 (stereo not drawn) [Compound 211] | 5.89 nM | > 10000 nM | 5.75 nM | –
OC1CCCN(CC2CC3c4ccccc4Cc4ccc(F)cc4C3O2)C1 (single isomer, unassigned) [Compound 142] | 14.5 nM | 2400 nM | 3.16 nM | –
O=C(NC1CCN(CC2CC3c4ccccc4Cc4ccc(F)cc4C3O2)CC1)c1ccccc1Cl (stereo not drawn) [Compound 227] | 5.25 nM | 9120 nM | 11.2 nM | –
CC(C)(C)COC(=O)NC1CCN(CC2CC3c4ccccc4Cc4ccc(F)cc4C3O2)CC1 (stereo not drawn) [Compound 215] | 15.8 nM | 7410 nM | – | –
Cn1cccc1C(=O)NC1CCN(CC2CC3c4ccccc4Cc4ccc(F)cc4C3O2)CC1 (stereo not drawn) [Compound 221] | 7.76 nM | 7240 nM | 11 nM | –
COc1ccc(OC(=O)NC2CCN(CC3CC4c5ccccc5Cc5ccc(F)cc5C4O3)CC2)cc1 (stereo not drawn) [Compound 219] | – | – | – | pIC50 ([1]; D2L pIC50, human D2L receptor-transfected CHO cell membranes): 8.47; pIC50 ([2]; NET pIC50, rat brain cortex): < 5.00; pIC50 ([3]; 5-HT2C pIC50, human cloned 5-HT2C receptor): 8.40
O=C(O)C1CCN(C[C@H]2C[C@@H]3c4ccccc4Cc4ccc(F)cc4[C@@H]3O2)CC1 [Compound 157] | 132 nM | > 10000 nM | 7.24 nM | –
N#Cc1ccc2c(c1)C1CC(CN3CCC(O)C3)OC1c1cc(F)ccc1S2.O=C(O)C(=O)O (mixture of isomers) [Compound 259] | – | – | – | D2L pIC50 [1]: 6.59; NET pIC50 [2]: 5.38; 5-HT2C pIC50 [3]: 7.64
CC(=O)OC1CCN(C[C@H]2C[C@@H]3c4ccccc4Cc4ccc(F)cc4[C@@H]3O2)CC1 [Compound 166] | 2.09 nM | 7240 nM | < 1 nM | –
O=C(NC1CCN(CC2CC3c4ccccc4Cc4ccc(F)cc4C3O2)CC1)c1cccc(Cl)c1Cl (stereo not drawn) [Compound 228] | 9.12 nM | 7940 nM | 20.9 nM | –
O=C(O)C(=O)O.O[C@@H]1CCN(C[C@H]2C[C@@H]3c4ccccc4Cc4ccc(F)cc4[C@@H]3O2)C1 [Compound 2] | – | – | – | D2L pIC50 [1]: 7.86; NET pIC50 [2]: 6.34; 5-HT2C pIC50 [3]: 9.58
CCOC(=O)C1CCN(C[C@H]2C[C@@H]3c4ccccc4Cc4ccc(F)cc4[C@@H]3O2)CC1 [Compound 162] | 3.63 nM | > 10000 nM | 1.02 nM | –
COCCOC(=O)NC1CCN(CC2CC3c4ccccc4Cc4ccc(F)cc4C3O2)CC1 (stereo not drawn) [Compound 216] | 10.2 nM | > 10000 nM | 6.17 nM | –
O=C(C1CCN(CC2CC3c4ccccc4Cc4ccc(F)cc4C3O2)CC1)N1CC=C(c2ccccc2)CC1 (stereo not drawn) [Compound 207] | 25.7 nM | 6170 nM | 6.76 nM | –
CCCOC(=O)NC1CCN(CC2CC3c4ccccc4Cc4ccc(F)cc4C3O2)CC1 (stereo not drawn) [Compound 212] | 6.03 nM | 7080 nM | 7.41 nM | –
CC1c2ccccc2C2CC(CN3CCC(O)C3)OC2c2cc(F)ccc21 (mixture of isomers) [Compound 46] | 17.4 nM | 2400 nM | 1.1 nM | –
O=C(NCc1cccc(C(F)(F)F)c1)C1CCN(CC2CC3c4ccccc4Cc4ccc(F)cc4C3O2)CC1 (stereo not drawn) [Compound 182] | 31.6 nM | 6920 nM | 8.32 nM | –
Fc1ccc2c(c1)C1OC(CN3CCOC(CCOc4ccccc4)C3)CC1c1ccccc1C2 (mixture of isomers) [Compound 131] | 19.5 nM | 2400 nM | 30.9 nM | –
C#CCOC(=O)NC1CCN(CC2CC3c4ccccc4Cc4ccc(F)cc4C3O2)CC1 (stereo not drawn) [Compound 217] | 4.9 nM | 8910 nM | 4.07 nM | –
OC1CCCN(CC2CC3c4ccccc4Cc4ccc(F)cc4C3O2)C1 (single isomer, unassigned) [Compound 143] | 12.6 nM | > 10000 nM | 1.82 nM | –
O=C(NC1CCN(CC2CC3c4ccccc4Cc4ccc(F)cc4C3O2)CC1)c1c(F)c(F)c(F)c(F)c1F (stereo not drawn) [Compound 234] | 8.71 nM | 7240 nM | 21.9 nM | –
O=C(O)C(=O)O.OC1CCN(CC2CC3c4ccccc4Oc4ccc(F)cc4C3O2)CC1 (stereo not drawn) [Compound 283] | – | – | – | D2L pIC50 [1]: 6.70

The next lines start with results.

IC50 [1] | IC50 [2] | IC50 [3] | SMILES | also measured
11.5 nM | 3240 nM | 6.61 nM | COCCNC(=S)NC1CCN(CC2CC3c4ccccc4Cc4ccc(F)cc4C3O2)CC1 (stereo not drawn) [Compound 252] | –
20.4 nM | 5620 nM | 20.4 nM | COc1cc(NC(=S)NC2CCN(CC3CC4c5ccccc5Cc5ccc(F)cc5C4O3)CC2)cc(OC)c1OC (stereo not drawn) [Compound 255] | –
23.4 nM | 3980 nM | 22.9 nM | CC(C)(C)CC(C)(C)NC(=O)NC1CCN(CC2CC3c4ccccc4Cc4ccc(F)cc4C3O2)CC1 (stereo not drawn) [Compound 245] | –
58.9 nM | 7940 nM | 38 nM | O=C(NC1CCN(CC2CC3c4ccccc4Cc4ccc(F)cc4C3O2)CC1)c1ccc(-c2ccccc2)cc1 (stereo not drawn) [Compound 237] | –
10.7 nM | 3630 nM | 8.51 nM | CS(=O)(=O)CCCCNC(=S)NC1CCN(CC2CC3c4ccccc4Cc4ccc(F)cc4C3O2)CC1 (stereo not drawn) [Compound 251] | –
6.76 nM | > 10000 nM | 3.24 nM | CN(C)C(=O)NC1CCN(CC2CC3c4ccccc4Cc4ccc(F)cc4C3O2)CC1 (stereo not drawn) [Compound 243] | –
21.4 nM | 7760 nM | 5.62 nM | O=C(Nc1ccc2c(c1)CCC2)NC1CCN(CC2CC3c4ccccc4Cc4ccc(F)cc4C3O2)CC1 (stereo not drawn) [Compound 238] | –
44.7 nM | 6460 nM | 44.7 nM | NCCNC(=S)NC1CCN(CC2CC3c4ccccc4Cc4ccc(F)cc4C3O2)CC1 (stereo not drawn) [Compound 256] | –
4.57 nM | > 10000 nM | 5.75 nM | O=C(Cc1cccs1)NC1CCN(CC2CC3c4ccccc4Cc4ccc(F)cc4C3O2)CC1 (stereo not drawn) [Compound 240] | –
11.7 nM | 1350 nM | 5.75 nM | O=C(NC1CCN(CC2CC3c4ccccc4Cc4ccc(F)cc4C3O2)CC1)NC1CC1c1ccccc1 (mixture of isomers) [Compound 246] | –
49 nM | > 10000 nM | 22.9 nM | O=C(Cc1ccc(Cl)cc1)NC1CCN(CC2CC3c4ccccc4Cc4ccc(F)cc4C3O2)CC1 (stereo not drawn) [Compound 239] | –
16.2 nM | > 10000 nM | 0.912 nM | OCC1CC2CN(C[C@H]3C[C@@H]4c5ccccc5Cc5ccc(F)cc5[C@@H]4O3)CCC2O1 (stereo partly drawn) [Compound 274, [2R-(2α, 3aα, 12bβ)]-(2′RS,3a′RS, 7a′RS)[5-(11-fluoro-3,3a,8,12b-tetrahydro-2H-1-oxa-dibenzo[e,h]azulen-2-ylmethyl)-octahydro-furo[3,2-c]pyridin-2-yl]-methanol.oxalate (1:1)] | –
